Test results as given in patent US20060275217A1, “Chemical exchange saturation transfer contrast agents” (priority 2005, published 2006).

Test system: blood pool
Assay: Mouse CEST MR imaging at 4.7T
Type: in vivo
Settings: mouse sacrificed 1 minute after injection, ~0.6 mmol Eu(II)/kg, saturation at -52 ppm vs +52 ppm
Method: Data was recorded at 4.7T on Bruker MR imager in a mouse sacrificed 1 minute after injection of Eu-polyLysine CEST (Example 4a) compound in water at a ˜0.6 mmol Eu(II)/kg dose (saturation pulse with a power of ˜25 μT for 2.0 s using 1000 Gauss pulses of 2 ms each).
Reference tubes contain from left to right: water, compound at 10 mM Eu(III) concentration, compound at 50 mM Eu(III) concentration and, Magnevist at a concentration such that T1˜1s.

polylysine conjugate with the europium complex of 1,4,7,10-tetra-[N-(carboxymethyl)-carbamoyl-methyl]1,4,7,10-tetraaza-cyclododecane [Example 4a]
contrast in digital difference axial image (control minus CEST image): contrast enhancement in the blood pool
